The text below walks through data of the supplement of paper PMC10307832.

Holding throughout (assay): relative viability (nuclei count vs DMSO), 5 days (fraction); higher = more cells survive
Compound in the assay “4EGI-1 + Olaparib”: O=C(O)C(Cc1ccccc1[N+](=O)[O-])=NNc1nc(-c2ccc(Cl)c(Cl)c2)cs1 (mixture of isomers) [4EGI-1] + O=C(c1cc(Cc2n[nH]c(=O)c3ccccc23)ccc1F)N1CCN(C(=O)C2CC2)CC1 [Olaparib] (partner 8 µM)
In a few lines: (§1)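 Five library-drug doses in √10 steps were combined with a fixed anchor-drug dose, or a single drug was given alone, by pin tool to lung cancer cell lines in 1536-well plates the day after seeding. Nuclei were stained and counted after 5 days. Relative viability is the nuclei count in treated wells over that in vehicle wells, taken as the median of duplicate plates.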

Compound in the assay “XMD8-85 + AZD7762”: CN1CCN(CC1)C2=CC(=C(C=C2)NC3=NC=C4C(=N3)N(C5=CC=CC=C5C(=O)N4C)C)OC [XMD8-85] + NC(=O)Nc1cc(-c2cccc(F)c2)sc1C(=O)N[C@H]1CCCNC1 [AZD7762] (partner 0.2 µM)
In a few lines:
as §1

Compound in the assay “XMD8-85 + Linsitinib”: CN1CCN(CC1)C2=CC(=C(C=C2)NC3=NC=C4C(=N3)N(C5=CC=CC=C5C(=O)N4C)C)OC [XMD8-85] + C[C@]1(O)C[C@@H](c2nc(-c3ccc4ccc(-c5ccccc5)nc4c3)c3c(N)nccn32)C1 [Linsitinib] (partner 1 µM)
In a few lines:
as §1

Compound in the assay “XMD8-85 + Palbociclib”: CN1CCN(CC1)C2=CC(=C(C=C2)NC3=NC=C4C(=N3)N(C5=CC=CC=C5C(=O)N4C)C)OC [XMD8-85] + CC(=O)c1c(C)c2cnc(Nc3ccc(N4CCNCC4)cn3)nc2n(C2CCCC2)c1=O [Palbociclib] (partner 0.5 µM)
In a few lines:
as §1

Compound in the assay “XMD8-85 + Phenformin”: CN1CCN(CC1)C2=CC(=C(C=C2)NC3=NC=C4C(=N3)N(C5=CC=CC=C5C(=O)N4C)C)OC [XMD8-85] + N=C(N)NC(=N)NCCc1ccccc1 [Phenformin] (partner 250 µM)
In a few lines: as §1

As to NCI-H1792, the relative viability with 4EGI-1 + Olaparib (first compound 0.5 µM) came to 0.412; in the assay with 4EGI-1 + Olaparib (first compound 1.581 µM), 0.496; in the assay with 4EGI-1 + Olaparib (first compound 5 µM), 0.359; with 4EGI-1 + Olaparib (first compound 15.81 µM) it was 0.36; with 4EGI-1 + Olaparib (first compound 50 µM), 0.165; in the assay with XMD8-85 + AZD7762 (first compound 0.8 µM), 0.647. The relative viability amounted to 0.694 with XMD8-85 + AZD7762 (first compound 2.53 µM); 0.574 in the assay with XMD8-85 + AZD7762 (first compound 8 µM); 0.47 with XMD8-85 + Linsitinib (first compound 0.08 µM); 0.521 in the assay with XMD8-85 + Linsitinib (first compound 0.253 µM); 0.463 with XMD8-85 + Linsitinib (first compound 2.53 µM); 0.556 with XMD8-85 + Linsitinib (first compound 8 µM). Also, the relative viability with XMD8-85 + Palbociclib (first compound 0.253 µM) stood at 0.642; in the assay with XMD8-85 + Palbociclib (first compound 2.53 µM), 0.835; with XMD8-85 + Palbociclib (first compound 8 µM), 0.551; with XMD8-85 + Phenformin (first compound 0.253 µM) it was 0.268; with XMD8-85 + Phenformin (first compound 2.53 µM), 0.257; in the assay with XMD8-85 + Phenformin (first compound 8 µM), 0.486.
